Test results as given in patent US8076332B2, “N- (2-aminophenyl) benzamide derivative having urea structure” (Santen Pharmaceutical Co., Ltd., priority 2006, dated 2011).

How the values were obtained:
[1] = system: male Japanese White rabbits; test: Test for evaluation of intraocular pressure-lowering effect (intracameral administration); format: in vivo; conditions: 20 μL of 1 mM administration liquid to one eye, at 9 hours after administering, versus vehicle control group, 6 cases per group
Protocol: 2. Test for Evaluation of Intraocular Pressure-Lowering Effect
In order to evaluate an intraocular pressure-lowering effect of the present compounds, a test for evaluation of intraocular pressure-lowering effect of intracameral administration of a drug using male Japanese White rabbits was performed.
A test compound was dissolved or suspended in physiological saline containing 0.5% dimethyl sulfoxide, whereby a 1 mM test compound administration liquid was prepared.
One drop of 0.4% oxybuprocaine hydrochloride eye drop was instilled into both eyes of each male Japanese White rabbit to achieve local anesthesia, and thereafter, the intraocular pressure was measured using an applanation tonometer. Then, by using a syringe fitted with a 30-gauge needle, the test compound administration liquid (20 μL) was intracamerally administered to one eye. As a control, 20 μL of the vehicle (physiological saline containing 0.5% dimethyl sulfoxide) for the test compound was intracamerally administered. After the lapse of a certain period of time from the administration of the test compound or vehicle, one drop of 0.4% oxybuprocaine hydrochloride eye drop was instilled into the administered eye to achieve local anesthesia, and thereafter, the intraocular pressure was measured using an applanation tonometer.
The intraocular pressure-lowering effect of each test compound was evaluated by calculating an intraocular pressure reduction rate. The intraocular pressure reduction rate (%) was calculated using the following equation. (Intraocular Pressure Reduction rate(%))=100×(Average Value of Intraocular Pressure of Control Group)−(Average Value of Intraocular Pressure of Each Test Compound Administration Group)/(Average Value of Intraocular Pressure of Control Group) (Test Results)
As an example of the test results, the intraocular pressure reduction rates of the respective test compound administration groups at 9 hours after administering the respective test compounds (Compound 1-59, Compound 1-80, and Compound 2-2) are shown in Table II (one group consisting of 6 cases).

[2] = system: human trabecular meshwork cell line (TM-1 cells); test: Test for evaluation of effect of morphological change on trabecular meshwork cells (cell shape index, CSI); format: cell-based; conditions: final concentration 10 μM, incubation 24 hours, CSI=4π×(Cell Area)/(Cell Perimeter)^2, average per group, Control 0.730
Protocol: 1. Test for Evaluation of Effect of Morphological Change on Trabecular Meshwork Cells
As a method for evaluating a cellular morphological change, an evaluation system using the cell shape index (hereinafter referred to as “CSI”) as an index has been reported in The Journal of Clinical Investigation, 103, 1141-1150 (1999). Therefore, according to the method described in the above document, an effect of morphological change of the present compounds on trabecular meshwork cells was evaluated.
A human trabecular meshwork cell line (hereinafter referred to as “TM-1 cells”) reported in Investigative Opthalmology & Visual Science, 43, 151-161 (2002) was used.
Culture medium 1: A reagent was prepared by adding fetal bovine serum (10%), L-glutamine (2 mM), amphotericin B (2.5 μg/mL), and gentamicin (25 μg/mL) to Dulbecco's modified Eagle medium (hereinafter referred to as “D-MEM”).
Culture medium 2: Fetal bovine serum (3%), L-glutamine (2 mM), amphotericin B (2.5 μg/mL), and gentamicin (25 μg/mL) were added to D-MEM.
Cell staining liquid: A mixed liquid of Calcein-AM (16 μM) and Hoechst 33342 (40 μM) was prepared by diluting a Calcein-AM solution (cytoplasmic staining reagent, manufactured by Dojindo Laboratories) and a Hoechst 33342 solution (nuclear staining reagent, manufactured by Dojindo Laboratories) with D-MEM containing L-glutamine (2 mM), amphotericin B (2.5 μg/mL), and gentamicin (25 μg/mL).
TM-1 cells subcultured at 37° C. in a 8% carbon dioxide gas atmosphere were treated with a trypsin/EDTA solution (0.05% trypsin and 0.53 mM tetrasodium ethylenediaminetetraacetate) at 24 hours before performing a drug treatment mentioned below and seeded on a 96-well culture plate. The culture medium 1 was used for the subculture of the cells. The culture medium 2 was used for the cell culture after seeding the cells on the plate.
A test compound was dissolved in dimethyl sulfoxide, whereby a 5 mM solution was prepared. Then, the resulting solution was diluted with the culture medium 2, whereby a 200 μM test compound solution was prepared.
It has been reported that Y-27632 which is a Rho kinase inhibitor induces a morphological change in trabecular meshwork cells in Investigative Ophthalmology & Visual Science, 42, 137-144 (2001). Therefore, Y-27632 (produced according to the method described in WO 90/05723) was used as a positive control, and dissolved in dimethyl sulfoxide in the same manner as the test compound, whereby a 5 mM solution was prepared, and then, the resulting solution was diluted with the culture medium 2, whereby a 200 μM positive control compound solution was prepared.
1) To a 96-well culture plate, a solution of TM-1 cells adjusted to a cell density of […] was added in an amount of 95 μL (1.5×10^4 cells) per well.
2) Incubation was performed at 37° C. in a 8% carbon dioxide gas atmosphere for 24 hours.
3) The test compound solution or positive control compound solution was added in an amount of 5 μL per well (the final concentration of the test compound or positive control compound was 10 μM). As a control, the culture medium 2 containing dimethyl sulfoxide (4%) was added in an amount of 5 μL per well.
4) Incubation was performed at 37° C. in a 8% carbon dioxide gas atmosphere for 24 hours.
5) The cell staining liquid was added in an amount of 10 μL per well.
6) Incubation was performed at 37° C. in a 8% carbon dioxide gas atmosphere for 1 hour to stain the cells.
7) A 37% formaldehyde solution was added in an amount of 10 μL per well.
8) Incubation was performed at room temperature for 1 hour to fix the cells.
9) Washing with phosphate-buffered saline was performed.
10) Using Array Scan Vti HCS reader (manufactured by Cellomics), images of stained cells magnified with a 20 times objective lens were captured in 80 fields (10 fields×8 wells) per test compound addition group.
11) CSI was calculated for each cell and an average value was obtained for each test compound addition group. […]

| SMILES | Intraocular Pressure Reduction Rate (%) [1] [%] | CSI [2] |
| --- | --- | --- |
| Nc1ccccc1NC(=O)c1ccc(CN(CCCN2CCOCC2)C(=O)NCCc2ccc3c(c2)OCO3)cc1 [Compound 1-59, N-(2-Aminophenyl)-4-[3-[2-(benzo[1,3]dioxol-5-yl)ethyl]-1-[3-(morpholin-4-yl)propyl]ureidomethyl]benz-amide] | 19 | 0.571 |
| CN(C)CCN(Cc1ccc(C(=O)Nc2ccccc2N)cc1)C(=O)Nc1ccc2c(c1)OCCO2 [Compound 1-80, N-(2-Aminophenyl)-4-[3-(2,3-dihydrobenzo[1,4]dioxin-6-yl)-1-(2-dimethylamino-ethyl)ureidomethyl]benzamide] | 18 | 0.543 |
| CN1CCN(CCN(Cc2ccc(C(=O)Nc3ccccc3N)cc2)C(=O)Nc2ccc(F)c(F)c2)CC1 [Compound 1-113, N-(2-Aminophenyl)-4-[3-(3,4-difluorophenyl)-1-[2-(4-methylpiperazin-1-yl)ethyl]-ureidomethyl]benzamide] | – | 0.585 |
| CC1CCN(CCCN(Cc2ccc(C(=O)Nc3ccccc3N)cc2)C(=O)Nc2ccc3c(c2)OCCO3)CC1 [Compound 1-128, N-(2-Aminophenyl)-4-[3-(2,3-dihydrobenzo[1,4]dioxin-6-yl)-1-[3-(4-methylpiper-idin-1-yl)propyl]ureido-methyl]benzamide] | – | 0.554 |
| Nc1ccccc1NC(=O)c1ccc(CN(CCCN2CCOCC2)C(=O)Nc2ccsc2)cc1 [Compound 1-134, N-(2-Aminophenyl)-4-[1-(3-(morpholin-4-yl)propyl]-3-(thiophen-3-yl)ureido-methyl]benzamide] | – | 0.580 |
| Cc1cc(NC(=O)N(CCCN2CCOCC2)Cc2ccc(C(=O)Nc3ccccc3N)cc2)ccc1F [Compound 1-135] | – | 0.555 |
| Nc1ccccc1NC(=O)c1ccc(CN(CCCN2CCOCC2)C(=O)Nc2ncc([N+](=O)[O-])s2)cc1 [Compound 1-165, N-(2-Aminophenyl)-4-[1-(3-(morpholin-4-yl)propyl]-3-(5-nitrothiazol-2-yl)ureido-methyl]benzamide] | – | 0.578 |
| Nc1ccccc1NC(=O)c1ccc(CN(CCCN2CCCC2)C(=O)Nc2ccc3c(c2)OCCO3)cc1 [Compound 1-169, N-(2-Aminophenyl)-4-[3-(2,3-dihydrobenzo[1,4]dioxin-6-yl)-1-[3-(pyrrolidin-1-yl)propyl]ureidomethyl]benz-amide] | – | 0.566 |
| CN(C)CCCN(Cc1ccc(C(=O)Nc2ccccc2N)cc1)C(=O)Nc1ccc(F)c(F)c1 [Compound 2-2, N-(2-Aminophenyl)-4-[3-(3,4-difluorophenyl)-1-(3-dimethylaminopropyl)ureidomethyl]benzamide] | 13 | 0.585 |
| COc1ccccc1NC(=O)N(CCCN(C)C)Cc1ccc(C(=O)Nc2ccccc2N)cc1 [Compound 2-3, N-(2-Aminophenyl)-4-[1-(3-dimethylaminopropyl)-3-(2-methoxyphenyl)ureidomethyl]benzamide] | – | 0.618 |
| CCOC(=O)CNC(=O)N(CCCN(C)C)Cc1ccc(C(=O)Nc2ccccc2N)cc1 [Compound 2-4] | – | 0.664 |
| CN(C)CCCN(Cc1ccc(C(=O)Nc2ccccc2N)cc1)C(=O)NC(C)(C)C [Compound 2-5, N-(2-Aminophenyl)-4-[3-t-butyl-1-(3-dimethylaminopropyl)ureidomethyl]benzamide] | – | 0.570 |
| CN(C)CCCN(Cc1ccc(C(=O)Nc2ccccc2N)cc1)C(=O)Nc1cccc(O)c1 [Compound 3-1, N-(2-Aminophenyl)-4-[1-(3-dimethylaminopropyl)-3-(3-hydroxyphenyl)ureidomethyl]benzamide] | – | 0.616 |
| C[C@@H](N)[C@H]1CC[C@H](C(=O)Nc2ccncc2)CC1 [Compound Y-27632, reference compound] | – | 0.600 |
